Laboratory results taken from publication PMC5218480 (PLoS ONE, 2017).

Test system: MV-4-11 cells
Assay: Gene expression microarray analysis (Affymetrix PrimeView) and GSEA
Format: cell-based, human
Set-up: RFU PODN (11730768_x_at) / Fold change /veh PODN (11730768_x_at) / RFU LINC00158 (11744669_a_at) / Fold change /veh LINC00158 (11744669_a_at) / RFU DUSP10 (11751237_a_at) / Fold change /veh DUSP10 (11751237_a_at) / RFU ID3 (11757404_x_at) / Fold change /veh ID3 (11757404_x_at) / RFU PLEKHG5 (11737974_s_at) / Fold change /veh PLEKHG5 (11737974_s_at) / RFU LRRC4B (11730491_at) / Fold change /veh LRRC4B (11730491_at) / RFU GIMAP4 (11747438_a_at) / Fold change /veh GIMAP4 (11747438_a_at) / RFU KRT8 (11758183_x_at) / Fold change /veh KRT8 (11758183_x_at) / RFU CNN1 (11734310_a_at) / Fold change /veh CNN1 (11734310_a_at) / RFU VPS37D (11726825_at) / Fold change /veh VPS37D (11726825_at) / RFU C10orf10 (11716522_x_at) / Fold change /veh C10orf10 (11716522_x_at) / RFU KIR2DL2 /// KIR2DL4 /// KIR2DL5A /// KIR2DL5B /// KIR2DS1 /// KIR2DS2 /// KIR2DS3 /// KIR2DS4 /// KIR3DL3 /// KIR3DL3 /// KIR3DS1 (11738374_at) / Fold change /veh KIR2DL2 /// KIR2DL4 /// KIR2DL5A /// KIR2DL5B /// KIR2DS1 /// KIR2DS2 /// KIR2DS3 /// KIR2DS4 /// KIR3DL3 /// KIR3DL3 /// KIR3DS1 (11738374_at) / RFU C1QL1 (11718748_at) / Fold change /veh C1QL1 (11718748_at) / RFU TMPRSS4 (11747572_a_at) / Fold change /veh TMPRSS4 (11747572_a_at) / RFU HAMP (11756126_x_at) / Fold change /veh HAMP (11756126_x_at) / RFU RNFT2 (11725882_a_at) / Fold change /veh RNFT2 (11725882_a_at) / RFU NR4A2 (11747474_a_at) / Fold change /veh NR4A2 (11747474_a_at) / RFU ABCC12 (11746883_a_at) / Fold change /veh ABCC12 (11746883_a_at) / RFU TMEM136 (11760407_x_at) / Fold change /veh TMEM136 (11760407_x_at) / RFU CLDN22 /// WWC2 (11732394_at) / Fold change /veh CLDN22 /// WWC2 (11732394_at) / RFU HLA-DPB1 (11760878_x_at) / Fold change /veh HLA-DPB1 (11760878_x_at) / RFU SPINT1 (11716480_a_at) / Fold change /veh SPINT1 (11716480_a_at) / RFU GAP43 (11754022_s_at) / Fold change /veh GAP43 (11754022_s_at) / RFU A4GNT (11735810_at) / Fold change /veh A4GNT (11735810_at) / RFU PRB3 (11715151_x_at) / Fold change /veh PRB3 (11715151_x_at) / RFU TUBB4B (11761932_at) / Fold change /veh TUBB4B (11761932_at) / RFU CAPN14 (11732068_a_at) / Fold change /veh CAPN14 (11732068_a_at) / RFU TMCC2 (11721928_a_at) / Fold change /veh TMCC2 (11721928_a_at) / RFU IRGQ (11745062_a_at) / Fold change /veh IRGQ (11745062_a_at) / RFU FAM174B (11720279_a_at) / Fold change /veh FAM174B (11720279_a_at) / RFU TMPRSS4 (11748680_a_at) / Fold change /veh TMPRSS4 (11748680_a_at) / RFU FAM212B (11763350_a_at) / Fold change /veh FAM212B (11763350_a_at) / RFU PLEKHG5 (11743358_a_at) / Fold change /veh PLEKHG5 (11743358_a_at) / RFU ZSCAN30 (11745921_a_at) / Fold change /veh ZSCAN30 (11745921_a_at) / RFU CMKLR1 (11741424_a_at) / Fold change /veh CMKLR1 (11741424_a_at) / RFU LOC101060620 /// MAPK8IP1 (11723275_at) / Fold change /veh LOC101060620 /// MAPK8IP1 (11723275_at) / RFU SPTSSB (11747773_x_at) / Fold change /veh SPTSSB (11747773_x_at) / RFU PRSS12 (11739890_at) / Fold change /veh PRSS12 (11739890_at) / RFU BIN1 (11741810_x_at) / Fold change /veh BIN1 (11741810_x_at) / RFU WNT11 (11732464_a_at) / Fold change /veh WNT11 (11732464_a_at) / RFU C10orf10 (11716521_a_at) / Fold change /veh C10orf10 (11716521_a_at) / RFU C5orf56 (11738089_at) / Fold change /veh C5orf56 (11738089_at) / RFU CYB561 (11721691_x_at) / Fold change /veh CYB561 (11721691_x_at) / RFU ANKRD19P (11752326_a_at) / Fold change /veh ANKRD19P (11752326_a_at) / RFU OR2T12 /// OR2T33 /// OR2T8 (11738714_s_at) / Fold change /veh OR2T12 /// OR2T33 /// OR2T8 (11738714_s_at) / RFU VCAN (11748164_a_at) / Fold change /veh VCAN (11748164_a_at) / RFU JSRP1 (11732532_at) / Fold change /veh JSRP1 (11732532_at) / RFU KRTAP10-11 (11738290_x_at) / Fold change /veh KRTAP10-11 (11738290_x_at) / RFU MYO3A (11730013_a_at) / Fold change /veh MYO3A (11730013_a_at) / RFU EBF3 (11725865_a_at) / Fold change /veh EBF3 (11725865_a_at) / RFU CAMK2N1 (11719241_x_at) / Fold change /veh CAMK2N1 (11719241_x_at) / RFU C5orf56 (11738088_a_at) / Fold change /veh C5orf56 (11738088_a_at) / RFU OLFML3 (11715873_a_at) / Fold change /veh OLFML3 (11715873_a_at) / RFU LOC100653217 /// NTM (11731650_a_at) / Fold change /veh LOC100653217 /// NTM (11731650_a_at) / RFU MAPK11 (11762145_a_at) / Fold change /veh MAPK11 (11762145_a_at) / RFU FIZ1 (11724087_x_at) / Fold change /veh FIZ1 (11724087_x_at) / RFU OASL (11726364_x_at) / Fold change /veh OASL (11726364_x_at) / RFU SOX15 (11748057_x_at) / Fold change /veh SOX15 (11748057_x_at) / RFU CD79A (11719716_a_at) / Fold change /veh CD79A (11719716_a_at) / RFU HIST1H1D (11736915_at) / Fold change /veh HIST1H1D (11736915_at) / RFU CASKIN2 (11723855_a_at) / Fold change /veh CASKIN2 (11723855_a_at) / RFU LOC730098 (11760151_x_at) / Fold change /veh LOC730098 (11760151_x_at) / RFU OR4N2 (11742367_at) / Fold change /veh OR4N2 (11742367_at) / RFU PRRT2 (11749266_a_at) / Fold change /veh PRRT2 (11749266_a_at) / RFU SNX32 (11753110_a_at) / Fold change /veh SNX32 (11753110_a_at) / RFU CDHR5 (11726645_a_at) / Fold change /veh CDHR5 (11726645_a_at) / RFU RCAN1 (11760418_a_at) / Fold change /veh RCAN1 (11760418_a_at) / RFU FAM167A (11723789_a_at) / Fold change /veh FAM167A (11723789_a_at) / RFU FAM26E (11764081_at) / Fold change /veh FAM26E (11764081_at) / RFU ISYNA1 (11749810_s_at) / Fold change /veh ISYNA1 (11749810_s_at) / RFU ACY1 (11761880_at) / Fold change /veh ACY1 (11761880_at) / RFU 11764098_at / Fold change /veh 11764098_at / RFU SAMD14 (11745864_x_at) / Fold change /veh SAMD14 (11745864_x_at) / RFU NPB (11741838_a_at) / Fold change /veh NPB (11741838_a_at) / RFU TMPRSS6 (11731388_a_at) / Fold change /veh TMPRSS6 (11731388_a_at) / RFU KRTAP10-2 (11738614_at) / Fold change /veh KRTAP10-2 (11738614_at) / RFU ARHGAP8 /// PRR5-ARHGAP8 (11727945_x_at) / Fold change /veh ARHGAP8 /// PRR5-ARHGAP8 (11727945_x_at) / RFU KRTAP5-7 /// NADSYN1 (11734609_at) / Fold change /veh KRTAP5-7 /// NADSYN1 (11734609_at) / RFU RASL12 (11751679_a_at) / Fold change /veh RASL12 (11751679_a_at) / RFU CDKN2B (11736163_a_at) / Fold change /veh CDKN2B (11736163_a_at) / RFU PRF1 (11729649_at) / Fold change /veh PRF1 (11729649_at) / RFU, ZNF638 /// ZNF638-IT1 / Fold change vs veh, ZNF638 /// ZNF638-IT1 / RFU, PANK3 / Fold change vs veh, PANK3 / RFU, SH3YL1 / Fold change vs veh, SH3YL1 / RFU, ZEB2 / Fold change vs veh, ZEB2 / RFU, NRIP1 / Fold change vs veh, NRIP1 / RFU, PTTG1IP / Fold change vs veh, PTTG1IP / RFU, CAPN2 / Fold change vs veh, CAPN2 / RFU, MED14 / Fold change vs veh, MED14 / RFU, SNORA58 / Fold change vs veh, SNORA58 / RFU, C1orf63 / Fold change vs veh, C1orf63 / RFU, LRRFIP1 / Fold change vs veh, LRRFIP1 / RFU, NDUFAF7 / Fold change vs veh, NDUFAF7 / RFU, SLC12A2 / Fold change vs veh, SLC12A2 / RFU, IBTK / Fold change vs veh, IBTK / RFU, ESF1 / Fold change vs veh, ESF1 / Fold change vs veh, TMEM50B / RFU, TAOK1 / Fold change vs veh, TAOK1 / RFU, ACBD3 / Fold change vs veh, ACBD3 / RFU, TMA16 / Fold change vs veh, TMA16 / RFU, RWDD3 / Fold change vs veh, RWDD3 / RFU, BCAT1 / Fold change vs veh, BCAT1 / RFU, EDEM3 / Fold change vs veh, EDEM3 / RFU, TMEM33 / Fold change vs veh, TMEM33 / RFU, WDR75 / Fold change vs veh, WDR75 / RFU, AHCTF1 / Fold change vs veh, AHCTF1 / RFU, TFRC / Fold change vs veh, TFRC / RFU, ZDHHC17 / Fold change vs veh, ZDHHC17 / RFU, NOM1 / Fold change vs veh, NOM1 / RFU, ARL8B / Fold change vs veh, ARL8B / RFU, ZBTB11 / Fold change vs veh, ZBTB11 / RFU, TAMM41 / Fold change vs veh, TAMM41 / RFU, KIAA1704 /// LOC100996395 / Fold change vs veh, KIAA1704 /// LOC100996395 / RFU, ING1 / Fold change vs veh, ING1 / RFU, TRMT61B / Fold change vs veh, TRMT61B / RFU, FUBP3 / Fold change vs veh, FUBP3 / RFU, TP53 / Fold change vs veh, TP53 / RFU, TNKS2 / Fold change vs veh, TNKS2 / RFU, ZFP14 / Fold change vs veh, ZFP14 / RFU, ACTR2 / Fold change vs veh, ACTR2 / RFU, PPP3R1 / Fold change vs veh, PPP3R1 / RFU, PIK3R1 / Fold change vs veh, PIK3R1 / RFU, HNRNPA1 / Fold change vs veh, HNRNPA1 / RFU, RNF170 / Fold change vs veh, RNF170 / RFU, ZNF28 / Fold change vs veh, ZNF28 / RFU, RNGTT / Fold change vs veh, RNGTT / RFU, OGT / Fold change vs veh, OGT / RFU, BRD1 / Fold change vs veh, BRD1 / RFU, MARS / Fold change vs veh, MARS / RFU, ZNF655 / Fold change vs veh, ZNF655 / RFU, FAHD1 / Fold change vs veh, FAHD1 / RFU, BDP1 / Fold change vs veh, BDP1 / RFU, LRRCC1 / Fold change vs veh, LRRCC1 / RFU, ARID1A / Fold change vs veh, ARID1A / RFU, ZNF146 / Fold change vs veh, ZNF146 / RFU, ZNF330 / Fold change vs veh, ZNF330 / RFU, GPN3 / Fold change vs veh, GPN3 / RFU, C9orf123 / Fold change vs veh, C9orf123 / RFU, N4BP2L2 / Fold change vs veh, N4BP2L2 / RFU, ARFIP1 / Fold change vs veh, ARFIP1 / RFU, FAM179B / Fold change vs veh, FAM179B / RFU, BCL10 / Fold change vs veh, BCL10 / RFU, UHRF1BP1L / Fold change vs veh, UHRF1BP1L / RFU, BET1 / Fold change vs veh, BET1 / RFU, CNOT2 / Fold change vs veh, CNOT2 / RFU, ZNF268 / Fold change vs veh, ZNF268 / Fold change vs veh, ZNF507 / RFU, DGCR2 / Fold change vs veh, DGCR2 / RFU, WDSUB1 / Fold change vs veh, WDSUB1 / Fold change vs veh, HSP90B1 /// MIR3652 / RFU, ADSS / Fold change vs veh, ADSS / RFU, GK / Fold change vs veh, GK / RFU, ZNF148 / Fold change vs veh, ZNF148 / RFU, TAF9 / Fold change vs veh, TAF9 / RFU, SLC1A5 / Fold change vs veh, SLC1A5 / RFU, SLMO2 / Fold change vs veh, SLMO2 / RFU, ABCC4 / Fold change vs veh, ABCC4 / RFU, LOC101060439 /// RAP1B / Fold change vs veh, LOC101060439 /// RAP1B / RFU, RFX7 / Fold change vs veh, RFX7 / RFU, GTPBP10 / Fold change vs veh, GTPBP10 / RFU, CNEP1R1 / Fold change vs veh, CNEP1R1 / RFU, BIVM-ERCC5 /// ERCC5 / Fold change vs veh, BIVM-ERCC5 /// ERCC5 / RFU, ILF3 / Fold change vs veh, ILF3 / RFU 11762660_at / Fold change /veh 11762660_at / RFU VCAN (11757783_s_at) / Fold change /veh VCAN (11757783_s_at) / RFU DDX43 (11728927_at) / Fold change /veh DDX43 (11728927_at) / RFU KRT8 (11758188_x_at) / Fold change /veh KRT8 (11758188_x_at) / RFU NKD1 (11759106_at) / Fold change /veh NKD1 (11759106_at) / RFU SRD5A1 (11742802_a_at) / Fold change /veh SRD5A1 (11742802_a_at) / RFU TPSAB1 /// TPSB2 (11721975_s_at) / Fold change /veh TPSAB1 /// TPSB2 (11721975_s_at) / RFU GSTM3 (11746129_a_at) / Fold change /veh GSTM3 (11746129_a_at) / RFU IL23R (11737362_x_at) / Fold change /veh IL23R (11737362_x_at) / RFU TMEM51 (11727254_a_at) / Fold change /veh TMEM51 (11727254_a_at) / RFU PIWIL2 (11732686_x_at) / Fold change /veh PIWIL2 (11732686_x_at) / RFU ORM1 (11744905_x_at) / Fold change /veh ORM1 (11744905_x_at) / RFU CCDC152 (11743942_at) / Fold change /veh CCDC152 (11743942_at) / RFU ECM1 (11717891_a_at) / Fold change /veh ECM1 (11717891_a_at) / RFU IL23R (11748794_a_at) / Fold change /veh IL23R (11748794_a_at) / RFU TNFAIP8L3 (11732012_x_at) / Fold change /veh TNFAIP8L3 (11732012_x_at) / RFU MBOAT4 (11741988_at) / Fold change /veh MBOAT4 (11741988_at) / RFU 11764193_at / Fold change /veh 11764193_at / RFU TMEM53 (11763286_at) / Fold change /veh TMEM53 (11763286_at) / RFU MAGEB2 (11727129_at) / Fold change /veh MAGEB2 (11727129_at) / RFU TMEM200A (11744735_a_at) / Fold change /veh TMEM200A (11744735_a_at) / RFU CCDC152 (11751479_a_at) / Fold change /veh CCDC152 (11751479_a_at) / RFU FAM211A (11726209_a_at) / Fold change /veh FAM211A (11726209_a_at) / RFU RGS16 (11746705_a_at) / Fold change /veh RGS16 (11746705_a_at) / RFU VCAN (11755009_s_at) / Fold change /veh VCAN (11755009_s_at) / RFU RHOB (11743442_s_at) / Fold change /veh RHOB (11743442_s_at) / RFU RGS16 (11720943_a_at) / Fold change /veh RGS16 (11720943_a_at) / RFU RGS16 (11720944_at) / Fold change /veh RGS16 (11720944_at) / RFU, VPS4B / Fold change vs veh, VPS4B / RFU, CREB1 / Fold change vs veh, CREB1 / RFU, DNAJC13 / Fold change vs veh, DNAJC13 / RFU, GNAQ / Fold change vs veh, GNAQ / RFU, CDK5R1 / Fold change vs veh, CDK5R1 / RFU, ZRANB3 / Fold change vs veh, ZRANB3 / RFU, CUL4A / Fold change vs veh, CUL4A / RFU, CCNY / Fold change vs veh, CCNY / RFU, UFL1 / Fold change vs veh, UFL1 / RFU, COG3 / Fold change vs veh, COG3 / RFU, DIAPH2 / Fold change vs veh, DIAPH2 / RFU, SKA2 / Fold change vs veh, SKA2 / RFU, AFF3 / Fold change vs veh, AFF3 / RFU, LMF1 / Fold change vs veh, LMF1 / RFU, IPO11 / Fold change vs veh, IPO11 / RFU, DFFB / Fold change vs veh, DFFB / RFU, FOXP1 / Fold change vs veh, FOXP1 / RFU, CARD8 / Fold change vs veh, CARD8 / RFU, STRN3 / Fold change vs veh, STRN3 / RFU, ADK / Fold change vs veh, ADK / RFU, RASSF2 / Fold change vs veh, RASSF2 / RFU, WIPF1 / Fold change vs veh, WIPF1 / RFU, LARP1B / Fold change vs veh, LARP1B / RFU, RASA1 / Fold change vs veh, RASA1 / RFU, RB1 / Fold change vs veh, RB1 / RFU, PPFIA1 / Fold change vs veh, PPFIA1 / RFU, MAT2A / Fold change vs veh, MAT2A / RFU, CCT5 / Fold change vs veh, CCT5 / RFU, WDR92 / Fold change vs veh, WDR92 / RFU, CUX1 / Fold change vs veh, CUX1 / RFU, TTC7A / Fold change vs veh, TTC7A / RFU, TMEM135 / Fold change vs veh, TMEM135 / RFU, DEPTOR / Fold change vs veh, DEPTOR / RFU, CPM / Fold change vs veh, CPM / RFU, DNAJB6 / Fold change vs veh, DNAJB6 / RFU, CACNA2D3 / Fold change vs veh, CACNA2D3 / RFU, DTX4 / Fold change vs veh, DTX4 / RFU, TFCP2 / Fold change vs veh, TFCP2 / RFU, GMCL1 /// GMCL1P1 / Fold change vs veh, GMCL1 /// GMCL1P1 / RFU, AEBP2 / Fold change vs veh, AEBP2 / RFU, SNHG1 /// SNORD22 /// SNORD25 /// SNORD26 /// SNORD27 /// SNORD28 /// SNORD29 /// SNORD31 / Fold change vs veh, SNHG1 /// SNORD22 /// SNORD25 /// SNORD26 /// SNORD27 /// SNORD28 /// SNORD29 /// SNORD31 / Fold change (Aza/veh), C12orf56 (ProbeSet 11735607_a_at) / Fold change (ACY-1035/veh), C12orf56 (ProbeSet 11735607_a_at) / Fold change (Aza/veh), FGFR1OP (ProbeSet 11751329_s_at) / Fold change (ACY-1035/veh), FGFR1OP (ProbeSet 11751329_s_at) / Fold change (Aza/veh), VPS36 (ProbeSet 11739960_a_at) / Fold change (ACY-1035/veh), VPS36 (ProbeSet 11739960_a_at) / RFU SYPL1 (11715823_x_at) / Fold change /veh SYPL1 (11715823_x_at) / RFU IGFBP7 (11715501_s_at) / Fold change /veh IGFBP7 (11715501_s_at) / RFU REEP3 (11722064_at) / Fold change /veh REEP3 (11722064_at) / RFU IGLL1 (11728026_x_at) / Fold change /veh IGLL1 (11728026_x_at): dose or concentration left out as unconfirmed
Conditions: ProbeSet 11732306_x_at; LIST D

`Nc1ccc(-c2cccs2)cc1NC(=O)c1ccc2c(c1)cc(C1CC1)n2CCN1CCOCC1` [ACY-1035] was tested, and the “Fold change vs veh, CREB1” value was 0.87.
